Data taken from patent US20140066519A1, “USE OF XANTHOHUMOL AND/OR ISOXANTHOHUMOL AS AN AGENT FOR PREVENTING AND/OR COMBATING LIVER DISEASES” (FLAXAN GMBH & CO. KG, priority 2006, published 2014).

How the values were obtained:
male C57BL/6N mice = assay: high fat diet (NASH-inducing diet) feeding study in mice, 20 weeks (FIGS. 13-15); assay type: in vivo; details: 500 mg/kgBW
From the text: (§1) In vivo studies correlate with the in vitro studies. FIGS. 13-18 show comparative graphs of in vivo experimental data showing the effectiveness of xanthohumol when eating a high fat diet. The experiments involved using male C57BL/6N mice purchased from Charles River Laboratories (Sulzfeld, Germany). After two weeks of acclimatization, the mice were fed either standard diet (CTR), standard diet with xanthohumol (XN), high fat diet without providing xanthohumol (HFD), or high fat diet and xanthohumol (HFD+XN). High fat diet in the experiments included a NASH-inducing diet which includes sucrose, cholesterol, and fats rich in saturated fatty acids. In detail, the high fat diet included pork lard (15%), beef tallow (15%), palmitic acid (4%), stearic acid (4%), cholesterol (0.2%), and sucrose (30%). The feeding lasted for 20 weeks. Each experimental group had six mice. The XN and HFD+XN mice were provided with 500 mg of xanthohumol per kg of body weight (kgBW).

[1] = tested on: proinflammatory cytokine tumor necrosis factor (TNF) mRNA; assay: hepatic TNF mRNA expression in high fat diet mouse study (FIG. 16); assay type: in vivo; details: 500 mg/kgBW, 20 weeks
From the text: as §1
The TNF measurement is an indicator of inflammation in the liver. The mice that ate high fat diet (HFD) had the highest level of TNF mRNA. […] The reduction was by more than 50% of the HFD mice, such that the TNF mRNA of the HFD+XN mice had nearly the same TNF mRNA level as the control mice (CTR). […]

liver cells = assay: in vitro tests of fat accumulation (steatosis) in liver cells; assay type: cell-based
From the text: Another effective method of preventing NASH 102 can be performed by inhibiting inflammation 108 of the liver even when eating a high fat diet. Another effective method of preventing NASH 102 can be performed by inhibiting fibrosis 110 of the liver even when eating a high fat diet. […] Inhibition of fat accumulation, inflammation, and/or fibrosis can also be an effective treatment for slowing down or preventing further progression of the liver disease state (including NASH). […] Inhibition of the reception of fatty acids into liver cells was determined in vitro tests and in vivo experiments.

[2] = tested on: activated hepatic stellate cells; assay: destruction (LDH) of activated hepatic stellate cells (FIG. 8); assay type: cell-based; details: increasing dosage of xanthohumol
[3] = tested on: liver cancer cells (HepG2); assay: growth of liver cancer cells (HepG2) over time as a function of xanthohumol dosage (FIG. 5); assay type: cell-based; details: HepG2, increasing concentrations of xanthohumol, pure form (>98%)
[4] = tested on: liver cells infected with hepatitis C (HUH7 HCV replicon); assay: efficacy on liver cells infected with hepatitis C vs non-infected liver cells (FIGS. 2 and 3); assay type: cell-based
From the text: Thus, use of the invention allows a targeted therapy for reduction or elimination of liver cells infected with the virus.

hepatic stellate cells = assay: transformation of quiescent hepatic stellate cells to activated hepatic stellate cells (FIGS. 6 and 7); assay type: cell-based; details: hepatic stellate cell activation, increasing dosage of xanthohumol
From the text: FIGS. 6 and 7 illustrate the effect of addition of xanthohumol for the prevention of transformation of the body's own physiologically “quiescent” (non-activated) hepatic stellate cells to activated hepatic stellate cells.
FIGS. 6 and 7 illustrate the effect of addition of xanthohumol for the prevention of transformation of the body's own, physiologically “quiescent” (non-activated) hepatic stellate cells to activated hepatic stellate cells, which are responsible for scarring of the liver in cirrhosis of the liver.

[5] = tested on: tissue inhibitor of metalloproteinases 1 (TIMP-1) mRNA; assay: hepatic TIMP-1 mRNA expression in high fat diet mouse study (FIG. 18); assay type: in vivo; details: 500 mg/kgBW, 20 weeks
From the text: as §1
(§2) FIGS. 17 and 18 show charts of the detected measurement of hepatic mRNA expressions of Collagen Type I (Coll-I) and profibrogenic factor tissue inhibitor of metalloproteinases 1 (TIMP-1), respectively, of the mice from the experiments (*: p<0.05; normalized so that CTR is set to 1). These methodologies are established markers detecting hepatic fibrosis (e.g., fibrosis of the liver). […]

[6] = tested on: Collagen Type I (Coll-I) mRNA; assay: hepatic Coll-I mRNA expression in high fat diet mouse study (FIG. 17); assay type: in vivo; details: 500 mg/kgBW, 20 weeks
From the text: as §1, §2

[7] = standard diet with xanthohumol (XN)
[8] = standard diet with xanthohumol (XN), mice

SMILES: COc1cc(O)c(CC=C(C)C)c(O)c1C(=O)/C=C/c1ccc(O)cc1 [xanthohumol]
- reduction of ALT level compared to HFD mice (male C57BL/6N mice; HFD+XN): ~50%
- reduction of hepatic TG (mg(TG)/mg(protein)) compared to high fat diet without xanthohumol (male C57BL/6N mice; HFD+XN): more than 50%
- ALT level (male C57BL/6N mice; [7]): lowest detected levels
- hepatic TG (mg(TG)/mg(protein)) level (male C57BL/6N mice; [7]): lowest detected levels
- reduction of TNF mRNA compared to HFD mice ([1]; HFD+XN): more than 50%
- TNF mRNA level [1, 8]: lowest detected levels
- viability of the liver cells (liver cells; in vitro): does not affect the viability
- reception of fatty acids into liver cells (formation of steatosis) (liver cells; in vitro tests and in vivo experiments): directly inhibits
- fatty degeneration of liver cells (liver cells; in vitro, increased amount of xanthohumol): lessens fatty degeneration
- destruction (LDH) of activated hepatic stellate cells [2]: increased effect of destruction
- growth of the cancer cells [3]: progressively inhibited
- destruction of liver cells affected by the virus vs healthy liver cells ([4]; healthy liver cells left undamaged): selective destruction
- replication of the virus ([4]; hepatitis B and C viral damage to the liver): inhibit replication of the virus
- formation of scar tissue (hepatic stellate cells): increasingly suppressed
- hepatic TIMP-1 mRNA compared to HFD mice ([5]; HFD+XN): substantial reductions
- hepatic TIMP-1 mRNA level [5, 8]: about the same as the control mice
- hepatic Coll-I mRNA compared to HFD mice ([6]; HFD+XN): substantial reductions
- hepatic Coll-I mRNA level [6, 8]: about the same as the control mice
